Tests used:
Experiment in all cases: relative viability (nuclei count vs DMSO), 5 days (fraction); higher = more cells survive
AZD5582 = compound: C[C@@H](C(=O)N[C@@H](C1CCCCC1)C(=O)N2CCC[C@H]2C(=O)N[C@@H]3[C@@H](CC4=CC=CC=C34)OCC#CC#CCO[C@@H]5CC6=CC=CC=C6[C@@H]5NC(=O)[C@@H]7CCCN7C(=O)[C@H](C8CCCCC8)NC(=O)[C@H](C)NC)NC [AZD5582]
Summary of the method: (§1)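 Only plates meeting two conditions passed: control CV below 25% and at least one doubling. Lung cancer cell lines, kept overnight at 37 °C in 1536-well plates, were pinned with five library-drug doses (not always all listed) √10 apart on vehicle-anchored plates and grown 5 days without medium change. A one-step fix, permeabilisation and Hoechst stain preceded 4× imaging and MetaXpress nuclear counting. Viability equals treated-well nuclei divided by vehicle-well nuclei, as the median over plates.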

Temozolomide = compound: Cn1nnc2c(C(N)=O)ncn2c1=O [Temozolomide]
Summary of the method: as §1

AZD5582 + Navitoclax = compound: C[C@@H](C(=O)N[C@@H](C1CCCCC1)C(=O)N2CCC[C@H]2C(=O)N[C@@H]3[C@@H](CC4=CC=CC=C34)OCC#CC#CCO[C@@H]5CC6=CC=CC=C6[C@@H]5NC(=O)[C@@H]7CCCN7C(=O)[C@H](C8CCCCC8)NC(=O)[C@H](C)NC)NC [AZD5582] + CC1(C)CCC(c2ccc(Cl)cc2)=C(CN2CCN(c3ccc(C(=O)NS(=O)(=O)c4ccc(N[C@H](CCN5CCOCC5)CSc5ccccc5)c(S(=O)(=O)C(F)(F)F)c4)cc3)CC2)C1 [Navitoclax] (partner 0.5 µM)
Summary of the method: (§2)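 Dosing by pin tool came one day after lung cancer cell lines were seeded in 1536-well plates, using either one drug or a fixed anchor-drug dose plus five library-drug doses (not always all listed) in √10 steps. After 5 days, nuclei were counted on 4× images. Relative viability is treated-well nuclei count divided by vehicle-well nuclei count, and values are medians of duplicate plates.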

[1] = compound: Cn1nnc2c(C(N)=O)ncn2c1=O [Temozolomide] + N=C(N)NC(=N)NCCc1ccccc1 [Phenformin] (partner 250 µM)
Summary of the method: as §2

| Cell Line | relative viability (AZD5582; 0.001581 µM) | relative viability (AZD5582; 0.005 µM) | relative viability (AZD5582; 0.01581 µM) | relative viability (AZD5582; 0.05 µM) | relative viability (Temozolomide; 0.2 µM) | relative viability (Temozolomide; 0.6325 µM) | relative viability (Temozolomide; 2 µM) | relative viability (Temozolomide; 6.325 µM) | relative viability (Temozolomide; 20 µM) | relative viability (AZD5582 + Navitoclax; first compound 0.001581 µM) | relative viability (AZD5582 + Navitoclax; first compound 0.005 µM) | relative viability (AZD5582 + Navitoclax; first compound 0.01581 µM) | relative viability (AZD5582 + Navitoclax; first compound 0.05 µM) | relative viability ([1]; first compound 0.2 µM) | relative viability ([1]; first compound 0.6325 µM) | relative viability ([1]; first compound 2 µM) | relative viability ([1]; first compound 6.325 µM) | relative viability ([1]; first compound 20 µM) |
| --- | --- | --- | --- | --- | --- | --- | --- | --- | --- | --- | --- | --- | --- | --- | --- | --- | --- | --- |
| EMC-BAC-2 | 0.835 | 0.993 | 0.791 | 0.891 | 1.07 | 1.07 | 1.03 | 0.943 | 1 | 1.07 | 0.984 | 1.15 | 0.62 | 0.604 | 0.479 | 0.586 | 0.458 | 0.564 |
| NCI-H1651 | 0.932 | 1.01 | 0.952 | 1.13 | 0.983 | 0.997 | 0.984 | 0.997 | 0.993 | 0.981 | 1 | 1.21 | 1.14 | 0.388 | 0.332 | 0.353 | 0.268 | 0.351 |
| HCC-827 | 1.03 | 1.07 | 0.991 | 0.993 | 1.08 | 1.05 | 1.05 | 1 | 0.177 | 1.09 | 1.01 | 0.972 | 1.04 | 0.248 | 0.443 | 0.397 | 0.41 | 0.131 |
| SW 1573 | 0.939 | 1.04 | 1.03 | 1.13 | 0.998 | 0.992 | 1.07 | 0.948 | 0.971 | 0.848 | 0.926 | 0.82 | 1.32 | 0.348 | 0.384 | 0.457 | 0.367 | 0.348 |
| NCI-H460 | 0.958 | 0.991 | 0.965 | 1.1 | 1.02 | 0.998 | 1 | 1.03 | 1.1 | 1.08 | 1.03 | 1.06 | 1.03 | 0.52 | 0.54 | 0.492 | 0.488 | 0.478 |
| NCI-H1648 | 0.607 | 0.894 | 0.554 | 0.824 |  | 0.889 | 0.903 | 0.746 | 0.893 |  |  |  |  |  |  |  |  |  |
| NCI-H647 | 0.904 | 0.971 | 0.865 | 0.957 | 1 | 1.01 | 0.906 | 0.684 | 0.265 | 1.02 | 1.09 | 0.919 | 1.27 | 0.624 | 0.626 | 0.593 | 0.463 | 0.208 |
| NCI-H322M | 1.02 | 1.15 | 0.938 | 1.03 |  | 0.931 | 1 | 0.957 | 0.577 | 1.15 | 1.32 | 1.14 | 1.4 |  | 0.821 | 0.811 | 0.769 | 0.574 |
| NCI-H1666 | 0.886 | 0.953 | 0.971 | 0.94 | 0.92 | 0.994 | 0.906 | 0.751 | 0.76 | 0.823 | 0.859 | 1.11 | 0.837 | 0.575 | 0.584 | 0.585 | 0.526 | 0.594 |
| NCI-H2342 | 0.938 | 1.01 | 0.917 | 1.07 | 0.827 | 0.991 | 1.06 | 1.03 | 0.912 |  |  |  |  | 0.57 | 0.629 | 0.625 | 0.662 | 0.563 |
| ChaGo-K-1 | 0.978 | 1.02 | 0.971 | 0.975 | 1.06 | 0.983 | 1.08 | 0.933 | 0.928 | 0.977 | 1.18 | 0.797 | 0.994 | 0.595 | 0.484 | 0.617 | 0.413 | 0.509 |
| CAL-12T | 0.647 | 0.724 | 0.784 | 0.551 | 0.908 | 1.04 | 0.959 | 0.95 | 0.95 |  | 0.531 | 1.26 | 0.854 | 0.657 | 0.612 | 0.529 | 0.574 | 0.558 |
| LOU-NH91 | 0.924 | 0.944 | 0.882 | 0.925 | 0.856 | 0.979 | 0.993 | 0.926 | 0.786 | 0.652 | 0.724 | 0.704 | 0.678 | 0.612 | 0.74 | 0.711 | 0.788 | 0.476 |
| NCI-H1975 | 1 | 1.13 | 0.944 | 1.2 | 1.01 | 1.01 | 1.09 | 0.919 | 0.957 | 1.12 | 1.19 | 1.18 | 1.2 | 0.444 | 0.423 | 0.438 | 0.417 | 0.423 |
| LC-2-ad | 0.997 | 1.09 | 0.965 | 1.03 | 1.06 | 1.09 | 1.04 | 0.971 | 0.78 | 0.331 | 0.454 | 0.468 | 0.384 | 0.609 | 0.651 | 0.584 | 0.601 | 0.46 |

— the supplement of paper PMC10307832
